Test results: patent US20040102320A1, “NATURAL HERBICIDE FOR WEED REMOVAL” (priority 2002, published 2004)

Tested on: grass, including crabgrass and other weeds
Details: 100% of sodium bicarbonate

O=C([O-])O.[Na+] [sodium bicarbonate]
killing of grass: would kill grass, including crabgrass and other weeds
